Results published in patent US20140030368A1, “COMPOSITION FOR PREVENTING OR TREATING A RESPIRATORY DISEASE CONTAINING A MIXED HERBAL EXTRACT OF CNIDIUM OFFICINALE ROOT AND POLYGONI CUSPIDATI ROOT” (WHANIN PHARMACEUTICAL CO., LTD., priority 2011, published 2014).

Key:
Format in all cases: in vivo, mice
[1] = tested on: MIP-1α (macrophage inflammatory protein-1α); assay: Inflammatory mediator in bronchoalveolar lavage, E. coli-EV-induced model (ELISA)
Protocol: (§1) The expression patterns of the inflammatory mediators MCP-1 (monocyte chemoattractant protein-1) and MIP-1α (macrophage inflammatory protein-1α) in the bronchoalveolar lavage obtained in Test Example 8-1 were measured using an ELISA assay, and the results of the measurement are shown in Table 14 below.

[2] = tested on: MCP-1 (monocyte chemoattractant protein-1); assay: as above
Protocol: as §1

[3] = tested on: IP-10 (interferon-gamma inducible protein-10); assay: Inflammatory mediator in bronchoalveolar lavage, LPS-induced asthma/COPD model (ELISA); conditions: ovalbumin + LPS model
Protocol: In order to examine whether the extract of the present invention has the effect of inhibiting inflammatory mediators in a bronchoalveolar lavage in an LPS-induced asthma/chronic obstructive pulmonary disease model, the expression pattern of the inflammatory mediator IP-10 (interferon-gamma inducible protein-10) in the bronchoalveolar lavage obtained in Test Example 7-2 was measured using an ELISA assay, and the results of the measurement are shown in Table 10 below.

[4] = tested on: IL-4 (interleukin-4); assay: T cell-derived cytokine from lung tissue, ovalbumin-induced asthma/COPD model
Protocol: In order to examine whether the extract of the present invention has the effect of inhibiting adaptive immune responses in an ovalbumin (OVA)-induced asthma/chronic obstructive pulmonary disease model, the content of T cell-derived cytokines isolated from lung tissue was measured (see Seong Gyu Jeon et al., J. Allergy Clin. Immunol., 2007, 119, 831-837).
Specifically, a mixture of 75 μg of ovalbumin (OVA, Sigma) and 2 mg of aluminum hydroxide (Alum, Sigma) was intraperitoneally administered twice (days 0 and 7) into BALB/c female mice (6 weeks old; provided from Animal Laboratory in Biotech Center, Pohang University of Science & Technology) to sensitize the mice. At 14, 15 and 21 days after the first sensitization date, 50 μg of ovalbumin in PBS was challenged into the nasal cavity to induce asthma and chronic obstructive pulmonary disease. […]
Then, the lung tissue was finely cut with a blade and incubated with 5 ml of 1× Trypsin-EDTA and 1000 units of chollagenase at 37° C. for 10 […]. […] Then, the supernatant was collected, and the amount of cytokine IL-4 (interleukin-4) in the supernatant was measured using an ELISA (enzyme-linked immunosorbent assay).

[5] = tested on: IL-17; assay: T cell-derived cytokine from lung tissue, E. coli-EV-induced model (ELISA)
Protocol: (§2) In order to examine whether the extract of the present invention has the effect of inhibiting T cell-derived cytokine isolated from the lung tissue of an E. coli-EV-derived asthma/chronic obstructive pulmonary disease model, the following test was performed.
(§3) Specifically, the […] asthma/chronic obstructive pulmonary disease model was prepared by treatment with each of the extract of Example 2 and a comparative drug in the same manner as described in Test Example 8-1. At 6 hours after the final challenge, the mice were anesthetized by intraperitoneal injection with ketamine and xylazine, and lung tissue was obtained from the mice. The lung tissue was cut finely with a blade and incubated with 5 ml of 1× Trypsin-EDTA and 1000 units of chollagenase at 37 °C for 10 minutes. Then, the tissue was passed through a 100 μm mesh to collect only immune cells. To stimulate T cells among the collected cells, 1×10^5 cells and anti-CD28 (1 μg/ml) were added to a 96-well plate coated with anti-CD3 (1 μg/ml) and were incubated in an incubator at 37° C. for 12 hours. Next, the supernatant was collected, and the amounts of cytokines in the supernatant were measured using an ELISA assay.

[6] = tested on: IFN-γ; assay: as above
Protocol: as §2, §3

[7] = tested on: anti-ovalbumin-specific IgG1 antibody; assay: Antigen-specific antibody in serum, LPS-induced asthma/COPD model (ELISA)
Protocol: In order to examine whether the extract of the present invention has the ability to produce an antigen-specific antibody in an LPS-induced asthma/chronic obstructive pulmonary disease model, the LPS-induced asthma/chronic obstructive pulmonary disease model was prepared by treatment with each of the extract of Example 2 and a comparative drug in the same manner as described in Test Example 7-1. At 48 hours after the final challenge, the mice were anesthetized by intraperitoneal injection with ketamine and xylazine. Then, blood was collected from the heart using a 1 ml syringe, and serum was separated from the blood by centrifugation. Then, an anti-ovalbumin-specific IgG1 antibody in the serum was measured according to an ELISA assay, and the results of the measurement are shown in Table 11 below.

Compound	Inhibition rate(%) MIP-1α ([1]; 1 mg/kg b.i.d.)	Inhibition rate(%) MCP-1 ([2]; 1 mg/kg b.i.d.)	IP-10 inhibition rate (%) ([3]; 1 mg/kg b.i.d.)	IL-4 inhibition rate (%) ([4]; 1 mg/kg b.i.d. oral)	IL-17 inhibition rate (%) ([5]; 1 mg/kg b.i.d.)	IFN-γ inhibition rate (%) ([6]; 1 mg/kg b.i.d.)	IGg1 in serum ([7]; 1 mg/kg b.i.d.)	IGg1 in serum, Inhibition rate (%) ([7]; 1 mg/kg b.i.d.)	Inhibition rate(%) MIP-1α ([1]; 10 mg/kg b.i.d.)	Inhibition rate(%) MCP-1 ([2]; 10 mg/kg b.i.d.)	IP-10 inhibition rate (%) ([3]; 10 mg/kg b.i.d.)	IL-4 inhibition rate (%) ([4]; 10 mg/kg b.i.d. oral)	IL-17 inhibition rate (%) ([5]; 10 mg/kg b.i.d.)	IFN-γ inhibition rate (%) ([6]; 10 mg/kg b.i.d.)	IGg1 in serum ([7]; 10 mg/kg b.i.d.)	IGg1 in serum, Inhibition rate (%) ([7]; 10 mg/kg b.i.d.)
C[C@@H]1C[C@H]2[C@@H]3CCC4=CC(=O)C=C[C@]4(C)[C@@]3(F)[C@@H](O)C[C@]2(C)[C@@]1(O)C(=O)CO [Dexamethason, dexamethason]	8.3%	1.2%	4.09%	43.57%	1.12%	1.13%	28.94	57.35%	–	–	–	–	–	–	–	–
CC(C)(O)c1ccccc1CC[C@@H](SCC1(CC(=O)O)CC1)c1cccc(/C=C/c2ccc3ccc(Cl)cc3n2)c1 [montelukast]	–	–	–	–	–	–	–	–	4.2%	11.5%	1.80%	14.07%	0.22%	0.23%	44.84	33.91%
